The values below come from patent publication US20080269202A1, “Novel 2,3-benzodiazepine derivatives and their use as antipsychotic agents” (Teva Pharmaceutical Industries Ltd., priority 2007, published 2008).

In general, melting point refers to the temperature, or range, at which the solid turns liquid.

In series [1] the test system is DOPA accumulation in eminentia mediana. As to the kind of experiment: DOPA accumulation in eminentia mediana after NSD-1015. The conditions noted are these: for DOPA levels (pmol/mg prot): rat eminentia mediana, mean ± SEM. The series is classed as in vivo, Sprague-Dawley rats. The protocol: Acute administration of atypical antipsychotics results in enhanced accumulation of dihydroxyphenylalanine (DOPA) in the […] after the inhibition of DOPA decarboxylase. In contrast, DOPA accumulation is not altered by the typical antipsychotics (Andersson, G, Albinsson, A, Pettersson, G, Arzneimittelforschung. 1990, 40, 237; Gudelsky, G. A., Meltzer, H. Y. Neuropsychopharmacology, 1989, 2, 45). The effect of the compound of Example 121 on DOPA-accumulation was measured by analyzing the levels of DOPA in […]. […] (EM), were dissected out from the brains on ice-cold plates and kept at -70° C. until they were assayed for DOPA by HPL-EC. Statistical analysis was carried out using one-way ANOVA followed by Duncan test.

For series [2], the system named is apomorphine-induced climbing. As to the kind of experiment: apomorphine-induced climbing test in mice. The series is classed as in vivo, CD1 mice. To be noted: for ED50: Mus musculus, read-out: Climbing ED50 (mg/kg ip.). The protocol:
(§1) Anti-apomorphine effects were investigated in the climbing test in mice mediated through the mesolimbic and stereotypy test in rats mediated through the nigrostriatal system. Conventional antipsychotics antagonize both apomorphine-induced behaviours, while known atypical antipsychotics are weaker against apomorphine stereotypy.
The climbing test was carried out according to Protais et al. (Protais, P. et al. Psychopharmacologia, 1976, 50, 1.) Stereotyped behavior was induced in food deprived (for 16 hours) male CD1 mice weighing 20-25 g body by apomorphine HCl (SIGMA) in a s.c. dose of 2 mg/kg. Mice were placed individually into cylinders having 12 cm diameter and consisting of vertical bars of 2 mm diameter where apomorphine treated animals tended to adopt a vertical position in contrary to vehicle treated controls. Test substances were applied ip. 30 min before apomorphine.
10 and 20 min after apomorphine treatment the climbing behaviour was evaluated by scores of 0-2. 10 mice/group were used. The scores of the two readings were summed individually, meaned and compared to the control. The ED50 values were calculated by Litchfield-Wilcoxon's method (Litchfield Jr. J. T., Wilcoxon, F. J. Pharmacol. Exp. Ther. 1949, 96, 49,).

In series [3] the test system is apomorphine-induced stereotyped behavior. As to the kind of experiment: apomorphine-induced stereotypy. The series is classed as in vivo, CD1 mice. To be noted: for ED50: Mus musculus, read-out: Stereotypy ED50 (mg/kg po.).
Source text: as §1
Apomorphine-induced stereotypy was investigated according to Costall and Naylor (B. Costall and R. J. Naylor, Eur. J. Pharmacol. 1972, 18, 95) in male CD1 mice of 20-25 g body weight after 16 hours deprivation of food. 30 min before treatment mice were individually placed into small, transparent acrylic cages for habituation. Test substances were administered orally in a volume of 0.1 ml/10 g. 30 min later mice were treated with apomorphine HCl (SIGMA) in a subcutaneous dose of 2 mg/kg. […] The scores were summed individually, meaned and compared to the control group. The ED50 values were calculated by Litchfield-Wilcoxon's method (J. Pharmacol. Exp. Ther. 1949, 96, 49,).

For the next series, the system named is catalepsy. As to the kind of experiment: catalepsy test in rats. The series is classed as in vivo, CDBR rats. The conditions noted are these: for Catalapsy scores: dose 10 mg/kg ip, sum of 8 readings over 4 hours; for cataleptogenic potential: intraperitoneal, result in words. The text has this:
In order to investigate the potential side effect profile, the catalepsy test in rats has been carried out according to Costall and Naylor (Costall, B., Naylor, R. J. Arzneimittelforschung/Drug Res., 1973, 23, 674).
Catalepsy is defined as a failure to correct an externally imposed, unusual posture over a prolonged time. Neuroleptics which have direct inhibitory action on the nigrostriatal dopamine system induce catalepsy. It may be reflected by the Parkinson-like extrapyramidal symptoms seen clinically with administration of classical antipsychotics. The experiments were carried out in male CDBR rats weighing 300-400 g. The volume of administration was 0.25 ml/100 g body weight. The animals were starved for 16 hours before treatment, water was delivered ad libitum. After intraperitoneal administration of the test substances, the forepaws of the rats were placed on a horizontal stainless steel bar elevated to 10 cm high, while the hind paws remained on a metal plate. The semi-automatic 5-channel catalepsy meter measured the time spent in this unusual posture by an electronic stop-clock. The catalepsy time was scored from 0 to 5 according to the time spent in the unusual posture. […] Means of groups were calculated.

Series [4] has as its system PCP-induced hypermotility. As to the kind of experiment: PCP-induced hypermotility (motor activity meter) in mice. The series is classed as in vivo. To be noted: Mus musculus, read-out: PCP-hypermotility ED50 mg/kg po. The text has this:
(§2) Alterations in the mesocortical dopaminergic tract are thought to be responsible for the negative symptoms of schizophrenia (flattening of affect, poverty of speech, lack of volition and drive, loss of feeling, social withdrawal and decreased spontaneous movement). The best animal model of these symptoms is the behavioral changes induced by PCP (phencyclidine). The PCP-induced stereotypy and hypermotility was investigated in mice according to Ljungberg and Ungerstedt (Ljungberg, T., Ungerstedt, U. Pharmacol. Biochem. Behav., 1985, 23, 479,) and Jawitt (Jawitt, D. C. Amer. J. Psychiatry, 1991, 145, 1301). The stereotypy experiments were carried out in male CD1 mice weighing 20-25 g. The animals were starved for 16 hours before treatment without limitation of water availability. In the stereotypy studies, 30 min before treatment, mice were individually placed into small, transparent acrylic cages for habituation. Test substances were administered orally in a volume of 0.1 ml/10 g. 30 min later mice were treated with PCP with an intraperitoneal dose of 7 mg/kg. Stereotyped behavior was observed every 5th min for 60 min and scored from 0 to 4. The scores were summed individually, averaged and compared to the control group.
The motor activity was measured in a 4-channel activity meter. The apparatus consisted of acrylic cages (40×40×32 cm) equipped with 16 pairs of infrared photocells. The photocells' beam, when broken, signaled a count, which was then recorded by a computer. A 5 mg/kg intraperitoneal dose of PCP was administered 5 min before the experiment. This dose of PCP induces 110-120% increase of the spontaneous motor activity. Test substances were administered orally 15 min before experiment, and mice were investigated individually in the experimental cages for 60 min. 10 mice/group were used. The total counts for each experimental group were compared to the vehicle treated control group.
(§3) In both studies the ED50 values were calculated by the Litchfield-Wilcoxon's method (J. Pharmacol. Exp. Ther. 1949, 96, 49).

The test system of series [5] is conditioned avoidance responses. As to the kind of experiment: conditioned avoidance: pole jumping test in rats. Format: in vivo, Long-Evans rats. The text has this: For measuring the antipsychotic potential in a non-perturbed dopamine system the pole jumping assay was used (Cook, L., Catania, A. C. Fed. Proc. 1964, 23, 818.)
This method is an active avoidance learning test. Long-Evans rats, weighing 250-450 g, were used in the experiments. Rats are placed in a box (25×25×25 cm) on a grid floor in the center of which there is a pole. After a latency period, light is turned on for a given time then the floor is electrified to deliver an unpleasant footshock. Rats may learn to avoid the shock by jumping up to grasp the pole. As soon as the rat jumps up the light and shock are turned off. Each light-on period lasted for 15 s, shock time for 30 s with an intertrial interval of 15 s. 30 such trials per day were repeated during the learning period until animals reach a minimum of 80% avoidance rate. During the experimental sessions 20 trials/day were run. Test substances were administered ip. in a volume of 0.25 ml/100 g body weight. Significances were calculated by Student's t test.

A further series deals with PCP-induced stereotypy. As to the kind of experiment: PCP-induced stereotypy in mice. Format: in vivo, CD1 mice. The conditions noted are these: Mus musculus, read-out: PCP-stereotypy ED50 mg/kg po.
Source text: as §2, §3

The subject of a further series is PCP-induced locomotion. As to the kind of experiment: PCP induced locomotor activity test (open field). Format: in vivo, mice. The conditions noted are these: all doses (3, 7, 14, 28, 40 mg/kg) by gavage, PCP 5 mg/kg, vs vehicle. The protocol:
The effects of compounds 121 and 183, administered orally, were also evaluated in the PCP induced locomotor activity test. Compound 121 was designated as “Compound A” and Compound 183 was designated as “Compound B” for purposes of this study. In general, the study aimed to test Compounds A and B for potential antipsychotic activity in PCP treated mice.
Compounds A & B were dissolved in 3% Tween: Compound A: 1, 3, 6, 10, and 15 mg/kg; Compound B: 3, 7, 14, 28, and 40 mg/kg; Compounds A+B were administered by gavage.
PCP (5 mg/kg) was dissolved in sterile injectable water.
The open field (“OF”) test assessed both anxiety and locomotor behavior. The open field chambers are Plexiglas square chambers (27.3×27.3×20.3 cm; Med Associates Inc., St Albans, Vt.) surrounded by infrared photobeams (16×16×16) to measure horizontal and vertical activity. The analysis was configured to divide the open field into a center and periphery zone. Distance traveled was measured from horizontal beam breaks as the mouse moved whereas rearing activity was measured from vertical beam breaks.
Mice were brought to the activity experimental room for at least 1 hr acclimation to the experimental room conditions prior to testing. […]
Data was analyzed to show baseline activity (activity during the 30 min prior to PCP injection) and PCP-induced activity (activity during the 60 min after PCP injection).

Series [6] relates to PCP-induced disruption of PPI. As to the kind of experiment: PCP-induced disruption of pre-pulse inhibition (PPI). To be noted: for reversal of PCP-induced disruption of PPI: PCP 8 mg/kg, C57B1/6J mice.
Source text: Male C57B1/6J mice from Jackson Laboratories (Bar Harbor, Me.) were used in this study. Mice were received at 6-weeks of age. Upon receipt, mice were assigned unique identification numbers (tail marked) and were group housed in OPTImice cages. All animals remained housed in groups of four during the remainder of the study. […] During the period of acclimation, mice were examined on a regular basis, handled, and weighed to assure adequate health and suitability. Mice were maintained on a 12/12 light/dark cycle with the light on at 6:00 a.m. The room temperature was maintained between 20 and 23° C. with a relative humidity maintained between 30% and 70%. Food and water were provided ad libitum for the duration of the study. In each test, animals were randomly assigned across treatment groups.
All compounds were injected i.p. at a dose volume of 10 ml/kg. […] Phenylcyclohexylpiperidine (PCP) (8 mg/kg) was dissolved in sterile water.
The acoustic startle measured an unconditioned reflex response to external auditory stimulation. […] Mice were placed in the PPI chambers (Med Associates) for a 5 min session of white noise (70 dB) habituation.
After the acclimation period the test session was automatically started. The session started with a habituation block of 6 presentations of the startle stimulus alone, followed by 10 PPI blocks of 6 different types of trials. Trial types are: null (no stimuli), startle (120 dB), startle plus prepulse (4, 8 and 12 dB over background noise i.e. 74, 78 or 82 dB) and prepulse alone (82 dB). Trial types were presented at random within each block.
Each trial started with a 50 ms null period during which baseline movements were recorded. There was a subsequent 20 ms period during which prepulse stimuli were presented and responses to the prepulse measured. After further 100 ms the startle stimuli were presented for 40 ms and responses recorded for 100 ms from startle onset. Responses were sampled every ms. The inter-trial interval was variable with an average of 15 s (range from 10 to 20 s). In startle alone trials the basic auditory startle was measured and in prepulse plus startle trials the amount of inhibition of the normal startle was determined and expressed as a percentage of the basic startle response (from startle alone trials), excluding the startle response of the first habituation block.
Data were analyzed by analysis of variance (ANOVA) followed by post-hoc comparisons with Fisher Tests when appropriate. An effect was considered significant if p<0.05. Data are represented as the mean and standard error to the mean.
[7] abbreviates: mice, ip. 30 min before apomorphine 2 mg/kg s.c.

Each structure is given as a SMILES string. Read-outs that look alike come from different tables or passages of the source.

Turning to `CN(C)CCCN1c2ccccc2Sc2ccc(Cl)cc21` [Chlorpromazine, reference compound], the “DOPA levels (pmol/mg prot)” value in [1] (10 mg/kg ip, NSD-1015 90 min after treatment) came out at 56.4 ± 4.1 pmol/mg prot. Besides, in series [1] (result in words, vs saline), the “effect on levels of DOPA in the EM of rats” value is given as “had no effect”. The ED50 in [2] (setting [7]) was determined as 1.2 mg/kg; in series [3] (mice, po. 30 min before apomorphine 2 mg/kg s.c.) it was 3.6 mg/kg; in series [4] (mice, po. 15 min before experiment, PCP 5 mg/kg ip) it was 1.86 mg/kg. The “inhibition of apomorphine-induced climbing” value in series [2] (mice, result in words) is recorded as “inhibited both behaviors”. Besides, the “inhibition of apomorphine-induced stereotyped behavior” value in series [3] (mice, result in words) was “inhibited both behaviors”. Further, the Catalapsy scores with catalepsy is recorded as 10:8.7. Besides, the cataleptogenic potential result in the series on catalepsy was “induces severe catalepsy”.
For the compound `CN1CCN(C2=Nc3cc(Cl)ccc3Nc3ccccc32)CC1` [Clozapine, reference compound], the “DOPA levels (pmol/mg prot)” value in series [1] (20 mg/kg ip) was found to be 87.4 ± 9.5 pmol/mg prot. The ED50 in [2] worked out at 2.64 mg/kg; in [3], 22.9 mg/kg; in the series on PCP-induced stereotypy, 3.76 mg/kg; in [4] it was 1.81 mg/kg. Also, in the series on catalepsy, the Catalapsy scores is on record as 10:0.14. Besides, the cataleptogenic potential entry in the series with catalepsy was “lack cataleptogenic potential”. In addition, in series [5], the “MED (mg/kg ip), minimal effective dose (stat. sign.)” value is listed as 2 mg/kg.
Compound `COc1cc2c(cc1OC)C(c1ccc(NC(C)=O)cc1)=NN(c1nccs1)[C@H](C)C2` [Example 183] gave a melting point of 156 to 158 °C. Also, in series [2] (setting [7]), the ED50 amounted to 8.7 mg/kg. In addition, the “effect on PCP induced locomotion” value with PCP-induced locomotion is reported as “significantly decreased”. Further, in [6] (15 mg/kg i.p. (high dose)), the “sedation and lethargy in the mice” value is “caused sedation and lethargy”. In addition, the “reversal of PCP-induced disruption of PPI” value in series [6] (5, 10, and 15 mg/kg i.p.) is reported as “significantly reversed”. Further, the “reversal of PCP-induced disruption of PPI” value in [6] (all doses (1.5, 5, 10, 15 mg/kg) i.p.) was “significantly reversed”.
